The test system of data set [1] is NK92 cells expressing pHlourin-LAMP1. The data set can be described thus: Live cell TIRFm of lytic granule motility and persistence in activated pHluorin-LAMP1 NK92 cells. It is filed as cell-based, human. To be noted: for pre-degranulation motility of granules: 10 μM LatA added after 10 minutes, vs DMSO control; for number / accumulation of granules at the TIRF plane of the activated NK IS: LatA-treated cells, not quantified. The protocol:
For NK92 lytic granule motility studies, pHluorin-LAMP1 NK92 cells were suspended in dye free RPMI 10% FBS media at a concentration of 7.5×10^5 to 10^6 cells/ml and incubated with 100 nM LysoTracker® Red DND-99 (Invitrogen) at 37° C. for 30 minutes, washed, and resuspended in media. ΔT culture dishes (Bioptechs) were coated with […] anti-NKp30 and -CD18, incubated at 37° C. for 1 hour or 4 degrees overnight, washed with PBS, and pre-warmed with dye free RPMI 10% FBS media. NK92 cells were plated on ΔT culture dishes immediately prior to imaging, and temperature was maintained at 37° C. throughout the experiment using a ΔT culture dish heater and lid (Bioptechs).
Cells were imaged in a single z-plane 10-15 minutes after addition to imaging chambers through an APO N TIRFm, oil immersion 60×1.49 NA objective using an Olympus IX-81 spinning disk confocal microscope with a rear-mounted TIRF illuminator and a Hamamatsu EM CCD C9100 camera. Excitation was by 480 nm (Spectra-Physics) and 561 nm (Cobalt) diode lasers through a LMM5 laser combiner unit (Spectral Applied Research). Cell image sequences were captured in TIRF mode at the interface between the cell and the glass over 60-80 minutes at 6 frames per minute using Volocity® software (PerkinElmer). Where indicated, cells were incubated with 10 μM LatA (Sigma) following 10 minutes of pre-incubation in the imaging chamber.
For TIRFm analysis, image sequences were analyzed using Volocity® software (PerkinElmer). LysoTracker® Red and pHluorin positive events were identified and cropped in Volocity®. Object tracks were generated over time using the “track objects manually” function and the rectangular selection tool for each event; the track length, track velocity, displacement, and displacement rate of each lytic granule were measured for both LysoTracker® Red time points and pHluorin time points, and comparatively graphed on GraphPad Prism® Version 5.0 (GraphPad software). Overlays of lytic granule tracks were generated by the plotting of X and Y coordinate values from Volocity with GraphPad Prism® for both Lysotracker® Red and pHluorin. To measure the time persistence of LysoTracker® Red lytic granules within the TIRF field, the time of LysoTracker® Red emergence on the TIRF field was subtracted from the time of pHlourin appearance or LysoTracker® Red disappearance and multiplied by 60 to obtain time persistence in seconds.
For LatA experiments, granules with both Lysotracker Red and pHluorin traces were identified and cropped in Volocity®. Objects were identified using a threshold of 3 SD above the mean field fluorescence for each timepoint to account for photobleaching using the “Find Objects Using SD Intensity” function. Objects smaller than 0.032 μm^2 were excluded from further analysis. Tracks were then generated using the “Track Objects” feature using the “Shortest Path” tracking model, and the track length, track velocity, displacement, displacement rate, and time span of each lytic granule tabulated and graphed using GraphPad Prism® software Version 5.0.
The sum fluorescent intensity and area of each granule was also recorded at each timepoint. Using the initial appearance of pHluorin-LAMP1 as time zero, the average sum fluorescent intensity post-degranulation was calculated and graphed for lytic granules treated with DMSO vehicle control versus those treated with LatA. For area measurements, the borders of individual granules were defined as those above 3 SD.

Another data set deals with NK cell. Particulars: cited from earlier work.
The test system of data set [2] is NK cell cortical actin filaments. Particulars: cited from earlier work.
Another data set has as its system PC12 chromaffin cells. To be noted: cited from earlier work.
The next data set concerns resting human NK cells. Particulars: cited from earlier work.
In data set [3] the test system is NK-92 cells expressing pHluorin-LAMP1. Put plainly: Flow cytometry of green fluorescence of NK-92 cells expressing pHluorin-LAMP1. Particulars: for pHluorin fluorescence: PMA 100 ng/mL and Ionomycin 1 μg/mL together for 30 minutes. The data set is classed as cell-based, human. The protocol:
Flow cytometry was performed to verify pHluorin-LAMP1 expression. Cells were untreated or treated with phorbol myristate acetate (PMA, 100 ng/mL,Sigma) and Ionomycin (1 μg/mL, Sigma) for 30 minutes or Concanamycin A (CMA, 100 nM, Sigma) for 90 minutes and samples were run on a Becton Dickinson FACSCalibur™.

A further data set relates to NK-92 cells. Put plainly: Degranulation assay (Granzyme A activity, BLT esterase) of NK-92 cells activated by immobilized antibody to NKp30 and CD18. The data set is classed as cell-based, human. To be noted: thapsigargin 1 μM, positive control. The protocol: Immulon 4HBX 96 well flat bottom plates (Thermo) were coated with murine IgG (BD), anti-human NKp30, anti-human CD18, or both anti-NKp30 and anti-CD18 at 5 μg/mL in PBS overnight at 4° C. Plates were washed twice with PBS and blocked for 1 hr at room temperature with R10 media. One×10^5 cells were added to wells and plates were spun at 1000 rpm for two minutes before incubation at 37° C. For the timecourse degranulation assay, supernatants from spontaneous and activated wells were harvested at indicated times. For inhibitor treatments, media containing inhibitor or vehicle (DMSO) was added at indicated times. Inhibitors used were jasplakinolide (1 μM, Calbiochem), latrunculin A (10 μM, Sigma), cytochalasin D (10 μM, Sigma), and thapsigargin (1 μM, Calbiochem). Supernatatants were harvested after 60 minutes. For total release, cells were lysed in 0.5% Nonidet P40 (Accurate Chemical and Scientific). […] Samples were incubated for 30 minutes at 37° C. and absorbance was measured immediately at 405 nm. Percent total release was measured by subtracting the spontaneous release value from activated release values (A-S) and the total release value (T-S), and then dividing (A-S) by (T-S).

The next data set concerns neutrophils. Particulars: cited from earlier work.
Setting [4] is: 10 μM LatA, 12-18 tracks, normalized to DMSO control.

“Also recorded” adds a separate entry of the source.

On to `C/C1=C/C(=O)O[C@@H]2C[C@@H](CC[C@H](C)/C=C\C=C\CC1)O[C@@](O)([C@@H]1CSC(=O)N1)C2` [LatA, latrunculin A], for which, in data set [1], the “pre-degranulation motility of granules” value is on record as “intact; also recorded: did not significantly affect granule movement prior to degranulation” and the “number / accumulation of granules at the TIRF plane of the activated NK IS” value is listed as “no observable defect in the number of granules that reached the TIRF plane”. Further, in data set [1] (listed as Latrunculin A), the “pre-degranulation motility of granules” value was “did not affect pre-exocytosis movement” and the “number / accumulation of granules at the TIRF plane of the activated NK IS” value is “gross accumulation of granules was not observed”. In data set [1] (setting [4]), the “lytic granule total displacement” value is “no significant differences”, the “lytic granule track length” value is given as “no significant differences” and the lytic granule velocity entry was “no significant differences”. For the same compound, the “timespan of green fluorescence (persistence following exocytosis)” value in data set [1] (10 μM LatA, control normalized to 1.0±0.56, p=0.0441) came out at 0.59±0.442. In data set [1] (10 μM LatA, control normalized to 1.0±0.87), the “lifetime of red fluorescence (timespan pre-degranulation)” value stood at 1.1±0.61 AU. The “median time for 50% survival of granules following degranulation (Kaplan-Meier)” value in data set [1] (10 μM LatA, control treated cells 28.8 minutes) is 13.7 min. In addition, in data set [1] (LatA vs DMSO, over 40 minutes p<0.0001, truncated at 20 minutes p=0.4438), the “area of granules post-degranulation” value is given as “slightly greater area”. The “sum fluorescent intensity (MFI*area) of granules post-degranulation” value in data set [1] (LatA vs DMSO, up to forty minutes post-degranulation, p<0.0001 Mann Whitney U test) is listed as “significantly greater sum fluorescent intensity (MFI*area) of granules from DMSO treated cells”. Moreover, the cytotoxic function result with NK cell is reported as “abrogates cytotoxic function”. For the same compound, the “depolymerization of cortical actin” value in data set [2] is recorded as “rapidly depolymerizes; also recorded: completely depolymerizes cortical actin”. Moreover, in the data set with PC12 chromaffin cells, the “expulsion of granule contents” value is “more rapid expulsion of granule contents”.
As for `C/C1=C/C(=O)O[C@@H]2C[C@@H](CC[C@H](C)/C=C\CC1)O[C@@](O)([C@@H]1CSC(=O)N1)C2` [Latrunculin B], in the data set on resting human NK cells, the “movement of granules at the plasma membrane / cortex” value is listed as “arrests those granules constitutively found at the plasma membrane” and the “numbers of granules at the plasma membrane” value is on record as “does not result in increased numbers of granules”.
For the compound `CCCCCCCCCCCCCC(=O)O[C@@H]1[C@@H](C)[C@@]2(O)[C@@H](C=C(CO)C[C@]3(O)C(=O)C(C)=C[C@@H]23)[C@@H]2C(C)(C)[C@]12OC(C)=O` [PMA, phorbol myristate acetate], in data set [3], the pHluorin fluorescence result is “rapid increase in pHluorin fluorescence”.
For `C/C=C(/C)C(=O)O[C@H]1C(C)=C2[C@H]([C@@H]1OC(=O)CCCCCCC)[C@@](C)(OC(C)=O)C[C@H](OC(=O)CCC)[C@@]1(O)[C@H]2OC(=O)[C@@]1(C)O` [Thapsigargin, thapsigargin], the effect on degranulation entry with NK-92 cells was “positive effect on degranulation”.
With `C/C=C/[C@H]1O[C@@](O)([C@@H](C)[C@H](O)[C@H](C)[C@H]2OC(=O)/C(OC)=C/C(C)=C/[C@@H](C)[C@@H](O)[C@@H](CC)[C@@H](O)[C@H](C)C/C(C)=C/C=C/[C@@H]2OC)C[C@@H](O[C@H]2C[C@@H](O)[C@H](OC(N)=O)[C@@H](C)O2)[C@@H]1C` [concanamycin A, Concanamycin A], the “green fluorescence measured by flow cytometry” value in data set [3] (Concanamycin A 100 nM for 90 minutes) is on record as “robust increase in green fluorescence”.
On to `C=C1[C@@H](C)[C@H]2[C@H](Cc3ccccc3)NC(=O)[C@]23[C@H](OC(C)=O)/C=C/[C@@](C)(O)C(=O)[C@@H](C)C/C=C/[C@H]3[C@@H]1O` [cytochalasin D], for which, in the data set with neutrophils, the “accumulation of granules at the exocytic zone” value is listed as “seems to promote the accumulation of granules” and the “movement of granules in the TIRF plane at the membrane” value is on record as “does not prevent movement of granules”.
In the case of `C[C@H](CCC(=O)O)C[C@H](C)C[C@H](C)C(=O)/C=C(\O)[C@H](C)C[C@H](C)C/C=C/[C@@H](C)[C@@H](O)[C@@H](C)[C@@H](O)C[C@@H]1CC[C@@](C)([C@H]2CC[C@@](C)([C@@H](C)O)O2)O1` [ionomycin, Ionomycin], the pHluorin fluorescence entry in data set [3] was “rapid increase in pHluorin fluorescence”.
Regarding `COC(=O)Nc1nc2ccc(C(=O)c3cccs3)cc2[nH]1` [nocodazole], in the data set on resting human NK cells, the “movement of granules at the plasma membrane / cortex” value is reported as “arrests the movement of granules at the cortex”.

These data come from patent publication US20150212064A1, “DEGRANULATION INDICATOR AND METHODS OF USE THEREOF” (priority 2011, published 2015).
